Results on one compound are retold here after patent US20100113527A1, “CRYSTALLINE FORMS OF DEXLANSOPRAZOLE” (Teva Pharmaceutical Industries Ltd., priority 2008, published 2010).

This data set in a line: Stability of crystalline form against polymorphic transformation at 60% relative humidity (PXRD comparison, FIG. 2). Type of data set: physicochemical. The text has this: FIG. 2 illustrates an X-ray powder diffraction pattern of form X of dexLansoprazole compared with the same form X after a week at 60% relative humidity.
As used herein in connection with form X, the term “stable” refers to stability against transformation, in which no more than about 20% of a polymorphic form transforms to another form under no less than about 60% relative humidity at about room temperature. When made according to the preferred embodiments of the present invention, less than 20% of form X transforms to any other form upon exposure to a RH of 60% at room temperature for a period of 7 days.
For ARL Powder diffractometer (All XRD Figures except FIG. 13):
Sample: Spin/Oscillate mode Range: 2-40 degrees two-theta Scan mode: Continuous scan Step size: 0.05 deg Scan rate: 3 deg./min

For the compound `Cc1c(OCC(F)(F)F)ccnc1C[S@@+]([O-])c1nc2ccccc2[nH]1` [form X, (R)-2-[(3-methyl-4-(2,2,2-trifluoroethoxy)pyridin-2-yl)methylsulfinyl]-1H-benzoimidazole], the “amount of the form that transforms to any other form” value (exposure to RH of 60% at room temperature for 7 days) is given as “less than 20%”. Under “relative humidity of 60%, room temperature, 7 days, PXRD, FIG. 2”, the “stability of the crystalline form (PXRD pattern after storage)” value is reported as “retains its PXRD pattern”.
